Measurements taken from US10239871B2, “Compounds and methods for regulating integrins” (ADHAERE PHARMACEUTICALS, INC., priority 2012, dated 2019).

Legend:
[1] = LA1 concentration in mouse blood after PO and IP dosing (LC-MS); assay type: in vivo; conditions: 10 mg/kg, mice
[2] = tested on: T cells from the draining lymph nodes; experiment: IFN production by antigen-reactive T cells (MOG-peptide); assay type: cell-based, mice; conditions: antigen dose-dependent
Experimental: Additionally, LA1 decreased IFN-[…] production by T-cells in an antigen dose-dependent fashion (MOG-peptide, data not shown) when antigen-reactive T cells from the draining lymph nodes of mice were assessed.

[3] = target: CD11b/CD18 (Homo sapiens, UniProt P11215); conditions: earlier described [55]; cited from earlier work
[4] = tested on: Diabetic nephropathy; experiment: Diabetic nephropathy model (BTBR ob/ob mouse); assay type: in vivo
Experimental: The efficacy of LA1 was tested in an experimental model of Diabetic nephropathy (DN), where inflammation plays a major role. It was surmised that reducing leukocyte activation, recruitment and influx can be a beneficial strategy for developing therapeutics against DN.

[5] = tested on: T-cell proliferation; experiment: Mixed lymphocyte reaction (MLR); assay type: cell-based
[6] = tested on: balloon-induced arterial injury; experiment: Balloon-induced arterial injury in rats (neointima); assay type: in vivo, rat
Experimental: All surgeries were performed under anesthesia by isoflurane (Baxter). Activating mAb ED7 (4 mg/kg/d), the isotype control mIgG1 (4 mg/kg/d, Rockland) and the leukadherin LA1 (1 mg/kg/d) were each administered intra peritoneally (i.p.) in saline daily until the end of the experiment. Balloon injury in the right iliac artery was inflicted with a 2F Fogarty catheter (Baxter) adapted to a custom angiographic kit (Boston Scientific, Scimed). An aortotomy in the abdominal aorta was made to insert a catheter to the level of the right iliac artery. The balloon was inflated to 1.5 to 1.6 atmospheres and retracted to the arteriotomy site three times. The aortic excision was repaired with eight sutures. The abdominal cavity was closed by planes with an interrupted suture pattern. Arterial specimens were collected 21 days after injury and fixed in 4% formalin-PBS (Sigma-Aldrich) for 5 minutes and analyzed by histology and immunostaining. Neointima were measured in H&E stained slides using ImagePro.
Despite significant technological advances in PCI, restenosis (re-narrowing) secondary to neointimal hyperplasia remains a major complication limiting the success of coronary interventions in 5-25% of patients. The recruitment of inflammatory macrophages and other leukocytes precedes neointimal hyperplasia. The denudation of endothelial cell lining at the site of mechanical vascular injury during a PCI procedure leads to the deposition of fibrin and platelets, where selective binding between the platelet cell surface receptor GP lb[…] and leukocytic CD11b/CD18 leads to the migration and recruitment of these inflammatory cells. Indeed, in experimental models, it has been shown that the genetic ablation of CD11b (CD11b−/− animals) or its blockade (using biological antagonists) can reduce neointima formation after angioplasty or stent implantation. […] Here, this experimental arterial balloon injury model was used to examine the relative efficacy of the two types of agonists, in a head-to-head comparison, on inflammatory responses in vivo. First, the dose-dependence of LA1 in this model system was determined. LA1 was administered at two different doses (0.05 or 1 mg/kg/d, intraperitoneal (i.p.)), or the vehicle (DMSO), in a saline solution to SD male rats 30 minutes prior to injury and continued daily injections for the next three weeks and subsequently measured the extent of vascular injury via tissue histology (FIGS. 14A-14D). Data shown are mean±SEM. *p<0.05, **p<0.001.
Next, in order to examine the relative efficacy of LA1 and ED7, LA1 (1 mg/kg/d) or ED7 (4 mg/kg/d) were administered to SD male rats 30 minutes prior to balloon injury and continued daily for the next 21 days. An isotype control antibody (mIgG1, 4 mg/kg/d) was administered to the control group of animals. […] Data shown are mean±SEM. *p<0.05, ***p<0.0001, ns=not significant.

[7] = tested on: hematopoiesis and HSC compartment; experiment: Hematopoiesis and HSC compartment after 6 Gy total body irradiation; assay type: in vivo, mice; conditions: 1 mg/kg i.p. 7 days from 24 hours post 6 Gy TBI; 4 weeks post TBI
Experimental: FIGS. 26A-26C show the analysis of hematopoiesis and HSC compartment in LA1 (Red bars), Vehicle control (Blue bars) treated groups of mice at 4 weeks after 6 Gy of total body irradiation (TBI), showing that LA1 is highly radio-protective and a radio-mitigator. […] Mice were exposed to 6 Gy of TBI (at 0.5 Gy/min), and treated intraperitoneally (i.p.) with LA1 (1 mg/kg) or vehicle alone for 7 consecutive days starting at 24 hours post TBI.

[8] = daily administration, fully diabetic animals
[9] = LA1 1 mg/kg/d, ED7 4 mg/kg/d, 21 days

O=C(O)c1ccc(-c2ccc(/C=C3\SC(=S)N(Cc4ccccc4)C3=O)o2)cc1 [LA1]
bioavailability [1]: bioavailable | concentration of LA1 in plasma [1]: high concentrations | levels in blood [1]: micromolar levels | mean residence time [1]: at least a few hours | IFN-[…] production by T-cells [2]: decreased | affinity for CD11b/CD18 [3]: high-affinity | glomerular damage and glomerular mesangial sclerosis ([4]; BTBR ob/ob mouse model): reduced glomerular damage and glomerular mesangial sclerosis | kidney function [4, 8]: preserved kidney function | number of infiltrating leukocytes in the kidney [4, 8]: significantly reduced the number of infiltrating leukocytes | T-cell proliferation [5]: dose-dependently reduces T-cell proliferation | neointimal hyperplasia vs vehicle ([6]; 0.05 or 1 mg/kg/d i.p., three weeks, SD male rats): significantly less neointimal hyperplasia | dose dependence of reduction in mechanical vascular injury ([6]; 0.05 vs 1 mg/kg/d i.p.): dose-dependent reduction | neointima formation compared to the ED7 group ([6]; LA1 1 mg/kg/d vs ED7 4 mg/kg/d, 21 days): significantly less neointima formation | neointimal hyperplasia (NIH) / mechanical vascular injury, significance vs control group [6, 9]: significant reduction in neointimal hyperplasia | neointimal thickening vs control mAb IgG1-treated group [6, 9]: reduced neointimal thickening | HSC analysis (BM cellularity, frequency of LKS+ BM cells and LKS+ CD150+ CD48− BM cells) [7]: significant improvement
